According to patent EP0158513A2, “Antiviral compounds” (THE WELLCOME FOUNDATION LIMITED, priority 1984, dated 1985):
≈ marks a conversion by molar mass, not a printed value.

How the values were obtained:
[1] = biological target: T1, xanthine oxidase from bovine milk (Bos taurus, UniProt P80457); test: oxidation by xanthine oxidase (enzyme studies); format: biochemical; details: compared with the 9-unsubstituted purine (2-aminopurine)
T1 construct: xanthine oxidase from bovine milk; from tissue; host or cells: bovine milk
Source text: The discovery that the 6-hydrogen purines of formula (IA) referred to above can be readily converted into their corresponding 6-hydroxy analogues was surprising since in previous studies with xanthine oxidase from bovine milk (H.Lettre et al (1967) Biochem.Pharmacol., 16, 1747-1755; T.A. Krenitsky et al (1972) Arch. Biophys., 150, 585-599), it was shown that 9- substitution obliterates or greatly diminishes the rate at which a variety of purines are oxidised.

physchem = format: physicochemical; details: 25 °C, water
Source text: In UK Patent Specification 2130204 we describe certain purine derivatives which are characterised by the presence of a hydrogen atom in the 6- position of the purine nucleus, and which can be readily converted in vivo by the action of enzymes of the molybdo-flavo-protein type (especially xanthine oxidase/dehydrogenase or aldehyde oxidase) into the corresponding 6-hydroxy purine derivatives having antiviral activity. […] This improved water-solubility enables 6-deoxyacyclovir to be used in a greater variety of aqueous pharmaceutical formulations which require some solubilisation of the drug.

T1 sequence (P80457 whole entry): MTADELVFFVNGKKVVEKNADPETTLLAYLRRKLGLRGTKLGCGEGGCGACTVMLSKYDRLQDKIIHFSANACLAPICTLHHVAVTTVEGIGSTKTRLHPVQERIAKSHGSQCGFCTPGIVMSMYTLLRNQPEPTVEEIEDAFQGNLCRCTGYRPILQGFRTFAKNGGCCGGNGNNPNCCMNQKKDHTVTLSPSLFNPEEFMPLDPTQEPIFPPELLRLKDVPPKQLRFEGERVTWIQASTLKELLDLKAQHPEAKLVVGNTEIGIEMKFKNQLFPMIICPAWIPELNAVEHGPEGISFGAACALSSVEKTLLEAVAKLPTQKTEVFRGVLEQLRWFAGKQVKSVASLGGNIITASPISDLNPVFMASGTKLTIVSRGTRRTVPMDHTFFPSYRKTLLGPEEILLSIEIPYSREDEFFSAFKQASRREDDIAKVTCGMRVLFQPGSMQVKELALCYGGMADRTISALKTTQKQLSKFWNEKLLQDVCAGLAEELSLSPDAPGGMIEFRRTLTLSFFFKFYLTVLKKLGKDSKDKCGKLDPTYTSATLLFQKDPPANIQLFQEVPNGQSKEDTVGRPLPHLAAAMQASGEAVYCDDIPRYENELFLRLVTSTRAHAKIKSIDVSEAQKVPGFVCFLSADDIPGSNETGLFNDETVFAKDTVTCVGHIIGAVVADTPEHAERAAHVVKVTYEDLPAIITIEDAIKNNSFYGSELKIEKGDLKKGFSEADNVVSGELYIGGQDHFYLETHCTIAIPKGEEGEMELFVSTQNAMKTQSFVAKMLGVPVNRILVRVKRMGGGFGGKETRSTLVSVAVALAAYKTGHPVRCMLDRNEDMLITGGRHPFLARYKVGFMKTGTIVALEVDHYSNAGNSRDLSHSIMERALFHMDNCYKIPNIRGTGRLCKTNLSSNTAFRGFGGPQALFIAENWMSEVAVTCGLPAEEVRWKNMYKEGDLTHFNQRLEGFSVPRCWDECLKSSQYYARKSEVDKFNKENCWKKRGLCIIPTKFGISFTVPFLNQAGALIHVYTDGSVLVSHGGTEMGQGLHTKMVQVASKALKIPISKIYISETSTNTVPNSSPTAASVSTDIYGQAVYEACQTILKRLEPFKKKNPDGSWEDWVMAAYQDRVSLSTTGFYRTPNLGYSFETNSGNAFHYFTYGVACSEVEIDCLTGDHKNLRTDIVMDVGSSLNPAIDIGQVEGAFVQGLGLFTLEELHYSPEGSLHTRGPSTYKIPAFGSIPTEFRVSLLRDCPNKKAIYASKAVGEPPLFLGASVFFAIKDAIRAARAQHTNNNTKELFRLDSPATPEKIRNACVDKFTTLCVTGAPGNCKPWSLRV

SMILES: Nc1ncc2ncn(COCCO)c2n1 [6-deoxyacyclovir, 2-amino-9-(2-hydroxyethoxymethyl)purine]
- rate of oxidation by the enzyme [1]: at a faster rate than the 9-unsubstituted purine
- solubility (physchem): 50 mg/mL (≈ 239 mM)

SMILES: Nc1nc2c(ncn2COCCO)c(=O)[nH]1 [acyclovir, 9-(2-hydroxyethoxymethyl)guanine]
- solubility (physchem): 1.23 mg/mL (≈ 5.46 mM)
